Ends that are not written are not given here.
Tests used:
adenylate cyclase [1] = settings: measured as amides; for pA2 Value: negative logarithm of the antagonist concentration that reduces the response to 1 unit of agonist to that of 0.5 unit; for % Relative Activity: relative potency in stimulating adenylate cyclase
Protocol: The inhibition index is the molar ratio of antagonist to agonist which reduces the biological response to one half of the value for the agonist in the absence of antagonist. It will be discussed more fully hereinafter.
Adenylate Cyclase Assay. The assay on liver membranes was performed according to Salomon et al. [Salomon, Y., Londos, C. & Rodbell, M. Anal. Biochem. 58, 541, 548 (1974)].
The purpose of the adenylate cyclase assay is to measure the ability of the compound under test to stimulate the activity of adenylate cyclase. The assays are used to measure relative potency, maximum activity and inhibition index.
The inhibition index, defined above, was determined from adenylate cyclase assays by two different protocols. • 1. A glucagon standard curve for cAMP vs glucagon concentration was established. Then another glucagon assay curve was measured in the presence of a constant amount of antagonist. […] A series of tubes were set up containing an amount of glucagon which will produce 90% of maximum response. Increasing amounts of antagonist were then added and the concentration that reduced the response to 45% of maximum was determined.

glucagon receptor = settings: prior-art antagonist, background; cited from earlier work
[2] = tested on: another binding system in the hepatocyte membrane; settings: prior-art antagonist, background; cited from earlier work
adenylate cyclase [3] = settings: prior-art antagonist, background; cited from earlier work

| Compound | pA2 Value (adenylate cyclase [1]) | % Relative Activity (adenylate cyclase [1]) [%] | binding to the glucagon receptor (glucagon receptor) | production of inositol trisphosphate and calcium ions [2] | activation of adenylate cyclase (adenylate cyclase [3]) |
| --- | --- | --- | --- | --- | --- |
| SQGTFTSYSKYLDSRRAQDFVQWLMNT-NH2 [compound 20, des-His^1des-Asp^9] | 5.5 | <0.0022 |  |  |  |
| SQGTFTSNYSKYLDSRRAQDFVQWLMNT-NH2 [compound 13, des-His^1[Asn^9]] | 6.52 | <0.0026 |  |  |  |
| Nα- trinitrophenyl [12-homoarginine] glucagon |  |  | does bind to the glucagon receptor | activates another binding system in the hepatocyte membrane leading to the production of inositol trisphosphate and calcium ions | without significant activation of adenylate cyclase |
| SQGTFTSKYSKYLDSRRAQDFVQWLMNT-NH2 [compound 16, des - His^1 [Lys^9] glucagon amide] | 7.35 | <0.0012 |  |  |  |
| SQGTFTSFYSKYLDSRRAQDFVQWLMNT-NH2 [compound 19, des-His^1[Phe^9]] | 6.2 | <0.0003 |  |  |  |
| SQGTFTSGYSKYLDSRRAQDFVQWLMNT-NH2 [compound 15, des - His^1 [Gly^9] glucagon amide] | 6.24 | <0.006 |  |  |  |
| COC(=O)CC[C@H](NC(=O)[C@H](CO)NC(=O)[C@@H](NC(=O)[C@H](Cc1ccccc1)NC(=O)[C@@H](NC(=O)CNC(=O)[C@H](CCC(N)=O)NC(=O)[C@@H](N)CO)[C@@H](C)O)[C@@H](C)O)C(=O)N[C@@H](Cc1ccc(O)cc1)C(=O)N[C@@H](CO)C(=O)N[C@@H](CCCCN)C(=O)N[C@@H](Cc1ccc(O)cc1)C(=O)N[C@@H](CC(C)C)C(=O)N[C@@H](CC(=O)O)C(=O)N[C@@H](CO)C(=O)N[C@@H](CCCNC(=N)N)C(=O)N[C@@H](CCCNC(=N)N)C(=O)N[C@@H](C)C(=O)N[C@@H](CCC(N)=O)C(=O)N[C@@H](CC(=O)O)C(=O)N[C@@H](Cc1ccccc1)C(=O)N[C@H](C(=O)N[C@@H](CCC(N)=O)C(=O)N[C@@H](Cc1c[nH]c2ccccc12)C(=O)N[C@@H](CC(C)C)C(=O)N[C@@H](CCSC)C(=O)N[C@@H](CC(N)=O)C(=O)N[C@H](C(N)=O)[C@@H](C)O)C(C)C [compound 12, des-His^1[Glu^9-(OCH3)]] | 7.35 | 0.011 |  |  |  |
| CSCC[C@H](NC(=O)[C@H](CC(C)C)NC(=O)[C@H](Cc1c[nH]c2ccccc12)NC(=O)[C@H](CCC(N)=O)NC(=O)[C@@H](NC(=O)[C@H](Cc1ccccc1)NC(=O)[C@H](CC(=O)O)NC(=O)[C@H](CCC(N)=O)NC(=O)[C@H](C)NC(=O)[C@H](CCCNC(=N)N)NC(=O)[C@H](CCCNC(=N)N)NC(=O)[C@H](CO)NC(=O)[C@H](CC(=O)O)NC(=O)[C@H](CC(C)C)NC(=O)[C@H](Cc1ccc(O)cc1)NC(=O)[C@H](CCCCN)NC(=O)[C@H](CO)NC(=O)[C@H](Cc1ccc(O)cc1)NC(=O)[C@@H](CCC(=O)O)NC(=O)[C@H](CO)NC(=O)[C@@H](NC(=O)[C@H](Cc1ccccc1)NC(=O)[C@@H](NC(=O)CNC(=O)[C@H](CCC(N)=O)NC(=O)[C@@H](N)CO)[C@@H](C)O)[C@@H](C)O)C(C)C)C(=O)N[C@@H](CC(N)=O)C(=O)N[C@H](C(N)=O)[C@@H](C)O [compound 11, des-His^1[D-Glu^9]] | 5.4 | <0.0037 |  |  |  |
| CSCC[C@H](NC(=O)[C@H](CC(C)C)NC(=O)[C@H](Cc1c[nH]c2ccccc12)NC(=O)[C@H](CCC(N)=O)NC(=O)[C@@H](NC(=O)[C@H](Cc1ccccc1)NC(=O)[C@H](CC(=O)O)NC(=O)[C@H](CCC(N)=O)NC(=O)[C@H](C)NC(=O)[C@H](CCCNC(=N)N)NC(=O)[C@H](CCCNC(=N)N)NC(=O)[C@H](CO)NC(=O)[C@H](CC(=O)O)NC(=O)[C@H](CC(C)C)NC(=O)[C@H](Cc1ccc(O)cc1)NC(=O)[C@H](CCCCN)NC(=O)[C@H](CO)NC(=O)[C@H](Cc1ccc(O)cc1)NC(=O)[C@@H](CC(=O)O)NC(=O)[C@H](CO)NC(=O)[C@@H](NC(=O)[C@H](Cc1ccccc1)NC(=O)[C@@H](NC(=O)CNC(=O)[C@H](CCC(N)=O)NC(=O)[C@@H](N)CO)[C@@H](C)O)[C@@H](C)O)C(C)C)C(=O)N[C@@H](CC(N)=O)C(=O)N[C@H](C(N)=O)[C@@H](C)O [compound 10, des-His^1[D-Asp^9]] | 5.9 | <0.0028 |  |  |  |
| SQGTFTSHYSKYLDSRRAQDFVQWLMNT-NH2 [compound 17, des-His^1[His^9]] | 7.0 | 0.011 |  |  |  |
| CCCC[C@H](NC(=O)[C@H](CO)NC(=O)[C@@H](NC(=O)[C@H](Cc1ccccc1)NC(=O)[C@@H](NC(=O)CNC(=O)[C@H](CCC(N)=O)NC(=O)[C@@H](N)CO)[C@@H](C)O)[C@@H](C)O)C(=O)N[C@@H](Cc1ccc(O)cc1)C(=O)N[C@@H](CO)C(=O)N[C@@H](CCCCN)C(=O)N[C@@H](Cc1ccc(O)cc1)C(=O)N[C@@H](CC(C)C)C(=O)N[C@@H](CC(=O)O)C(=O)N[C@@H](CO)C(=O)N[C@@H](CCCNC(=N)N)C(=O)N[C@@H](CCCNC(=N)N)C(=O)N[C@@H](C)C(=O)N[C@@H](CCC(N)=O)C(=O)N[C@@H](CC(=O)O)C(=O)N[C@@H](Cc1ccccc1)C(=O)N[C@H](C(=O)N[C@@H](CCC(N)=O)C(=O)N[C@@H](Cc1c[nH]c2ccccc12)C(=O)N[C@@H](CC(C)C)C(=O)N[C@@H](CCSC)C(=O)N[C@@H](CC(N)=O)C(=O)N[C@H](C(N)=O)[C@@H](C)O)C(C)C [compound 18, des - His^1 [Nle^9] glucagon amide] | 7.6 | <0.0012 |  |  |  |
| HSQGTFTSYSKYLDSRRAQDFVQWLMNT-NH2 [compound 2, des-Asp^9] | 7.2 | 1.04 |  |  |  |
| SQGTFTSQYSKYLDSRRAQDFVQWLMNT-NH2 [compound 14, des-His^1[Gln^9]] | 8.21 | <0.003 |  |  |  |
| DSQGTFTSHYSKYLDSRRAQDFVQWLMNT-NH2 [compound 9, Asp^1His^9] | 6.3 | <0.0009 |  |  |  |

Reference: patent EP0546013B1, “GLUCAGON ANALOGS WITH ASP-9 REPLACEMENTS OR DELETIONS” (THE ROCKEFELLER UNIVERSITY, priority 1990, dated 1997)
